Assay results: US20240082192A1, “TOPICAL F[…] PREGABALIN” (EGIS GYÓGYSZERGYÁR ZRT., priority 2021, published 2024)

Assays:
Wistar rats = test: Chronic constriction injury (CCI) rat model of neuropathy, paw withdrawal threshold with electronic von Frey device; type: in vivo; conditions: 16.66 mg/kg
From the text: Furthermore, based on the article Bennett G J, at al (Pain., A peripheral mononeuropathy in rat that produces disorders of pain sensation like those seen in man. 1988 April; 33(1):87-107) we have developed a method for the examination of the compositions of the present invention. Thus, we have examined the compositions according to the present invention also with a different model for measuring the alleviation of the peripheral neuropathic pain also. Namely, we have carried out examinations on rats using Chronic constriction injury (CCI) model. Three weeks following nerve injury rats were assessed for hind paw mechanical withdrawal thresholds. The paw withdrawal threshold (PWT) was determined with an Electronic von Frey device according to the modified up-down method of Dixon (Efficient analysis of experimental observations., Annu Rev Pharmacol Toxicol. 1980; 20:441-62). […] The method and results are shown in example 3 and on FIG. 9.
Thus, the compositions of the present invention are effective in the treatment of neuropathic pain. […]
Briefly, under isoflurane anesthesia small blunt dissection was made into the skin of rat right thigh then three loosely constrictive ligatures were placed around common sciatic nerve (chronic constriction injury CCI). Three weeks following nerve injury rats were assessed for hind paw mechanical withdrawal thresholds. […]

[1] = Pharmacokinetic studies, blood level of pregabalin after oral or topical administration
human patient = conditions: same aqueous solution; cited from earlier work
[2] = compositions containing 1 and 3% of pregabalin; cited from earlier work
Mouse = conditions: topical 2.5% aqueous solution without other ingredients; cited from earlier work

For `CC(C)C[C@H](CN)CC(=O)O` [pregabalin], the “reduction of hypersensitivity after oral administration” value (Wistar rats) is given as “not able to reduce hypersensitivity”, the “amount entering the bloodstream during topical treatment” value [1] is given as “very small amounts” and the “duration of reduction of neuropathic pain” value (human patient) is given as 6 h. For the same compound, the “time after which the pain alleviation effect decreased” value [2] was 1.5 to 2 h, the “alleviating effect 6 hours after administration” value (Mouse) was “the effect essentially disappeared” and the “time of maximum alleviating effect” value (Mouse) was 1 h.
